“Also recorded” adds a separate entry of the source.
How the values were obtained:
α-crystallin [1] = assay: Chaperone-like activity of α-crystallin from treated lenses (heat-induced βL-crystallin aggregation, light scattering at 360 nm); assay type: biochemical, rat; conditions: 100 or 200 μg α-crystallin + 200 μg βL-crystallin; 55° C. or 58° C.
Experimental: The following experiments were performed essentially as described elsewhere (Horwitz, J. (1992) Proc Natl Acad Sci USA. 89, 10449-10453). The chaperone-like activity of α-crystallin from control and H2O2±L-carnitine treated lenses was determined by heat denaturation studies. The extent to which the unmodified or modified α-crystallin preparation protected βL-crystallin (used as the target protein) from heat-induced denaturation and aggregation was assessed as follows: 100 μg or 200 μg of α-crystallin were added to 200 μg of βL-crystallin in a 1.5-ml cuvette and made up to a final volume of 1 ml with 50 mM phosphate buffer, pH 7.0. The cuvette was placed in a temperature-regulated cell holder attached to a UV spectrophotometer. Light scattering due to protein denaturation and aggregation was monitored at. 360 nm absorbance for 3,000 s at 55° C. or for 1,800 s at 58° C.
The chaperone properties of the purified water-soluble α-crystallin were determined by crystallin (target protein) aggregation assay. Characteristically, βL-crystallin aggregates at elevated temperatures. The addition of α-crystallin either prevents or decreases the heat-induced aggregation of βL-crystallin, which is measured by light scattering at 360 nm. Since the ratio of α to β determines the degree of protection against heat-induced aggregation, we used 100 μg or 200 μg of α-crystallin and 200 μg of βL-crystallin. […]

α-crystallin [2] = assay: Tryptophan fluorescence of α-crystallin fractions from treated lenses; set-up: species or system rat; conditions: excitation 295 nm, emission 330 nm
Excerpt: The loss of-protein tryptophan fluorescence, an indicator of tryptophan oxidation, seems to be a marker of crystallin integrity. We therefore measured-tryptophan fluorescence in lens crystallin (Perkin-Elmer 650-40 spectrophotometer) according to a previously described method (Jones, R. H. V., and Hothersall, J. S. (1993), Exp Eye Res 57, 783-790). The excitation wavelength was set to 295 nm, and the fluorescence emission was detected at 330 nm.

α-crystallin [3] = assay: GFAP gel forming assay (falling ball viscosimetry) with α-crystallin from treated lenses; assay type: biochemical, rat; conditions: α-crystallin from H2O2 ± L-carnitine-treated lenses; 37° C., 1 h
Excerpt: The sedimentation assay devised by Nicholl and Quinlan (Nicholl, I. D., and Quinlan, R. A. (1994), EMBO J 13, 945-953) was used to assess α-crystallin-induced inhibition of intermediate filament assembly. Purified porcine glial fibrillary acidic: protein (GFAP) was used for these studies; it was purified from porcine spinal cord by axonal flotation as described previously (Pemg, M. D., et al (1999), J Cell Sci. 112, 2099-2112, MacLean-Fletcher, S., and Pollard, T. D. (1980), Biochem Biophys Res Commun 96, 18-27). The gel formation assay was based on a method used to monitor actin binding protein activity by falling ball viscometry (Pemg, M. D., et al (1999), J Cell Sci. 112, 2099-2112). α-Crystallins were mixed with GFAP in 8 M urea, 20 mM Tris-HCI, pH 8.0, 5 mM EDTA, 25 mM 2-mercaptoethanol and then stepwise dialyzed in 10 mM Tris-HCI, pH 8.0, 25 mM 2-mercaptoethanol. Assembly of the GFAP intermediate filaments, in the presence or absence of α-crystallin, was induced by the addition of a 20-fold concentrated buffer to give a final concentration of 100 mM imidazole-HCI, pH 6.8, 0.5 mM DTT. A 100-μl aliquot of sample was loaded into a glass tube and used for the viscosity assay. The tube was then immersed in a 37° C. water bath for 1 h before the gel formation assay. A ball was then placed into the tube, and the ability of the solution to support the ball was monitored. […]

rat lenses = assay: Rat lens organ culture exposed to H2O2 with or without L-carnitine; assay type: cell-based, Sprague-Dawley rats; conditions: after 24 h incubation with H2O2 ± L-carnitine
Experimental: Four-month-old Sprague-Dawley rats were anesthesized with 5 mg/kg xylazine and 65 mg/kg ketamine, and decapitated. Immediately after, eyes were enucleated, extracted and placed in 2 ml of modified TC-199 medium. Lens integrity was assessed by measuring protein leached into the medium after 30-60 min of culture; damaged lenses were discarded. One lens of each pair was placed in culture medium with no H2O2 and used as a control. […] The controlateral lens of each pair was placed in medium and, after equilibration under 5% CO2 at 37° C., was exposed to 500 μM H2O2 in the absence or presence of 300 μM L-carnitine. After 24 h of incubation, morphological characteristics and changes were recorded, and the lenses were photographed. The incubated lenses were rinsed with saline solution, blotted on filter paper, weighed, and then immediately processed for biochemical analysis. To determine lactate dehydrogenase (LDH) leakage, lenses were incubated individually in each different medium, and the medium was harvested daily and saved for LDH analysis.
Decapsulated lenses were homogenized with disposable pestles and then sonicated in extract buffer (20 mM HEPES, 0.2 mM EDTA, 0.5 mM dithiothreitol, 450 mM NaCl, 25% glycerol, […] leupeptin, 0.5 μg/ml protinin, 0.5 mM phenylmethanesulfonyl fluoride) on ice. Aliquots of the homogenate from each of the incubated lenses were removed for GSH and L-carnitine analysis. The remainder was centrifuged for 25 min at 20,000×g to separate the supernatant from the pellet. The pellet was washed with 1.0 ml buffer and dried under nitrogen. This fraction was designated “water-insoluble fraction”. The supernatant fraction was dialyzed twice against 3 ml of 0.025 mol/l phosphate buffer, pH 7.4 for 48 h and lyophilized. This fraction was designated “water-soluble” fraction. The water-soluble and water-insoluble fractions were delipidated with 3.0 ml chloroform:methanol (2:1) for 16 h under shaking followed by centrifugation at 2,000 g for 5 min.
The water-insoluble proteins were suspended in 0.2 M N-ethylmorpholine acetate (pH 8.1). An aliquot (10%) was used to quantitate the amount of total protein. Samples were digested by the sequential addition of proteolytic enzymes (collagenase, pronase, aminopeptidase and carboxypeptidase A, carboxypeptidase B and carboxypeptidase y), directly to the reaction mixture at 37° C. in the presence of 0.02% sodium azide. After enzymatic digestion, the free N-(γ-glutamyl)lysine isopeptide cross-link was resolved by HPLC and quantitated by amino acid analysis (Hohl, D., et al (1991), J Biol Chem. 266, 6626-6636). In a related set of experiments, the isopeptide content of lenses was determined without prior extraction. […]

lens crystallins = conditions: Swamy-Mruthinti and Carter 1999; cited from earlier work

Structure (SMILES)	Capacity of α-crystallin to prevent heat-induced aggregation of βL-crystallin (α-crystallin [1])	Loss of tryptophan fluorescence in α-crystallin (α-crystallin [2])	Inhibition of GFAP gel formation by α-crystallin (α-crystallin [3])	Lens clarity / opacification (rat lenses)	Lens morphology by optical and electron microscopy (rat lenses)	Effect on in vitro glycation of lens crystallins (lens crystallins)
OO [H2O2]	significant decrease	2.7 fold	did not affect gel formation	became opaque	Ballooning, liquefaction and various degrees of fiber swelling	–
C[N+](C)(C)C[C@H](O)CC(=O)[O-] [L-carnitine]	prevented this negative effect	restored the basal value	blocked GFAP gel formation to the same extent as α-crystallin from control lenses	remained clear; also recorded: remained transparent	cell shape was unaltered and that fiber cells were intact	ineffective
CC(=O)O[C@H](CC(=O)[O-])C[N+](C)(C)C [acetyl L-carnitine]	–	–	–	–	–	decreased crystallin glycation
CC(=O)Oc1ccccc1C(=O)O [acetyl salicylic acid]	–	–	–	–	–	decreased crystallin glycation

Reference: patent US7833977B2, “Use of L-Carnitine as stabilizing agent of proteins” (Sigma-Tau Industrie Farmaceutiche Riunite S.p.A., priority 2000, dated 2010)
